Measured values: patent US10508085B2, “Compounds and methods for IDO and TDO modulation, and indications therefor” (Plexxikon Inc., priority 2016, dated 2019)

What was measured:
[1] = biological target: T1, Human Tryptophan 2,3-dioxygenase (TDO) (Homo sapiens, UniProt P48775); assay: Human TDO enzymatic assay (kynurenine level); format: biochemical; settings: 1 nM TDO, 350 μM L-Trp; geometric mean; read-out: TDO GMean: IC50 (μM) (Biochemical Assay)
T1 construct: His tag (N); made in house; host or cells: E. coli
Method in brief: (§1)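 N-His human IDO (6 nM, 10 μM L-Trp, 5 μM methylene blue, 20 min) or TDO (1 nM, 350 μM L-Trp, 0.4 μM methylene blue, 70 min) run at room temp in pH 6.5 phosphate with ascorbate, catalase, Tween 20. TCA stop, 30 min 50 °C converts N-formylkynurenine to kynurenine; IC50 by nonlinear regression.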

[2] = biological target: T2, Human Indoleamine 2,3-dioxygenase (IDO) (Homo sapiens, UniProt P14902); assay: Human IDO enzymatic assay (kynurenine level); format: biochemical; settings: 6 nM IDO, 10 μM L-Trp; geometric mean; read-out: IDO1 GMean: IC50 (μM) (Biochemical Assay)
T2 construct: His tag (N); made in house; host or cells: E. coli
Method in brief: as §1

[3] = biological target: T3, human TDO (TDO-expressing HEK293 cells) (Homo sapiens, UniProt P48775); assay: Cell based kynurenine assay, TDO-expressing HEK293 cell clones; settings: TDO-expressing HEK293 cells, 24 hours incubation; geometric mean; read-out: HEK293 TDO Kynurenine GMean IC50 (μM) (Cellular Assay)
T3 construct: expressed in transfected cells
Method in brief: (§2)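 HEK293 stable clones (hIDO1 or hTDO, CMV-driven; G418-selected); 2.5×10^4 cells/well; compound serial dilution, 24 h, 37 °C, 5% CO2; supernatant kynurenine; IC50 by nonlinear fit.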

[4] = biological target: T4, human IDO (IDO1-expressing HEK293 cells) (Homo sapiens, UniProt P14902); assay: Cell based kynurenine assay, IDO1-expressing HEK293 cell clones; settings: IDO1-expressing HEK293 cells, 24 hours incubation; geometric mean; read-out: HEK293 IDO1 Kynurenine GMean IC50 (μM) (Cellular Assay)
T4 construct: expressed in transfected cells
Method in brief: as §2

T2 sequence (P14902 whole entry): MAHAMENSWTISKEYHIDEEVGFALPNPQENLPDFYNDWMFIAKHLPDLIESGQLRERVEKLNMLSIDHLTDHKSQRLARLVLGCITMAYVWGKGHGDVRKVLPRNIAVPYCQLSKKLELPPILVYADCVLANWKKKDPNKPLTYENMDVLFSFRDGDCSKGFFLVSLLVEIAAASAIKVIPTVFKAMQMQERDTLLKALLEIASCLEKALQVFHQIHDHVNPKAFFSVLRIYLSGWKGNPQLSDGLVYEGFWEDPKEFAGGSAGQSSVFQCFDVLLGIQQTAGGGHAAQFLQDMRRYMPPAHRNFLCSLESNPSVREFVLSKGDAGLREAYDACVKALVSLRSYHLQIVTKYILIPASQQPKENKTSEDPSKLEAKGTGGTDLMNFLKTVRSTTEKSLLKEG
T4 sequence (P14902 whole entry): as above
T1 sequence (P48775 whole entry): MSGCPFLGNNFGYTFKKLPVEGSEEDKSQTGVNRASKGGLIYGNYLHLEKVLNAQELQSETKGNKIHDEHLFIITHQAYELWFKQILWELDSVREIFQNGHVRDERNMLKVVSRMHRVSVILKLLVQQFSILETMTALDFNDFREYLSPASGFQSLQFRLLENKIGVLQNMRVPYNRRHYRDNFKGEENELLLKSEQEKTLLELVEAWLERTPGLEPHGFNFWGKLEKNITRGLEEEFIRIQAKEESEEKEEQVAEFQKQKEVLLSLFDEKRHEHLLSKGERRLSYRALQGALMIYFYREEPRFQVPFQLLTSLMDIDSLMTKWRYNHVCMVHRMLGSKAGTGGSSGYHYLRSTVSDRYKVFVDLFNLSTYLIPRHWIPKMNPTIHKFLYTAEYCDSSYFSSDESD
T3 sequence (P48775 whole entry): as above

SMILES | IC50 [1] | IC50 [2] | IC50 [3] | IC50 [4]
OC(CC1C2CCC1CNC2)c1cc(Cl)cc2cn[nH]c12 (stereo not drawn) [Compound P-0274, 2-(3-azabicyclo[3.2.1]octan-8-yl)-1-(5-chloro-1H-indazol-7-yl)ethan-1-ol] | 10 to 100 µM | 10 to 100 µM | > 10 µM | > 10 µM
O=C(c1c2c(cc3cn[nH]c13)CC2)C(F)(F)C1CCOCC1 [Compound P-0275, 1-(5,6-dihydro-1H-cyclobuta[f]indazol-7-yl)-2,2-difluoro-2-(tetrahydro-2H-pyran-4-yl)ethan-1-one] | 0.0001 to 10 µM | 0.0001 to 10 µM | 0.0001 to 10 µM | 0.0001 to 10 µM
CCS(=O)(=O)N1CCC(C(F)(F)C(O)c2cc(Cl)cc3cn[nH]c23)CC1 (stereo not drawn) [Compound P-0276, 1-(5-chloro-1H-indazol-7-yl)-2-(1-(ethylsulfonyl)piperidin-4-yl)-2,2-difluoroethan-1-ol] | 0.0001 to 10 µM | 0.0001 to 10 µM | 0.0001 to 10 µM | 0.0001 to 10 µM
OC(c1c2c(cc3cn[nH]c13)CC2)C1(C2CCOCC2)CC1 (stereo not drawn) [Compound P-0277, (5,6-dihydro-1H-cyclobuta[f]indazol-7-yl)(1-(tetrahydro-2H-pyran-4-yl)cyclopropyl)methanol] | 0.0001 to 10 µM | 0.0001 to 10 µM | > 10 µM | 0.0001 to 10 µM
OC(c1c2c(cc3cn[nH]c13)CC2)C(F)(F)C1CCOCC1 (stereo not drawn) [Compound P-0278, 1-(5,6-dihydro-1H-cyclobuta[f]indazol-7-yl)-2,2-difluoro-2-(tetrahydro-2H-pyran-4-yl)ethan-1-ol] | 0.0001 to 10 µM | 0.0001 to 10 µM | > 10 µM | 0.0001 to 10 µM
OC(c1c2c(cc3cn[nH]c13)CC2)C12CCC(CC1)CC2 (stereo not drawn) [Compound P-0279, bicyclo[2.2.2]octan-1-yl(5,6-dihydro-1H-cyclobuta[f]indazol-7-yl)methanol] | 0.0001 to 10 µM | 0.0001 to 10 µM | > 10 µM | 0.0001 to 10 µM
CC(C)(C1CCN(S(C)(=O)=O)CC1)C(O)c1c2c(cc3cn[nH]c13)CC2 (stereo not drawn) [Compound P-0280, 1-(5,6-dihydro-1H-cyclobuta[f]indazol-7-yl)-2-methyl-2-(1-(methylsulfonyl)piperidin-4-yl)propan-1-ol] | 0.0001 to 10 µM | 0.0001 to 10 µM | > 10 µM | 0.0001 to 10 µM
CC(=O)N1CC2CCC(C1)C2CC(O)c1cc(Cl)cc2cn[nH]c12 (stereo not drawn) [Compound P-0281, 1-(8-(2-(5-chloro-1H-indazol-7-yl)-2-hydroxyethyl)-3-azabicyclo[3.2.1]octan-3-yl)ethan-1-one] | 0.0001 to 10 µM | 0.0001 to 10 µM | 0.0001 to 10 µM | 0.0001 to 10 µM
CS(=O)(=O)N1CC2CCC(C1)C2CC(O)c1cc(Cl)cc2cn[nH]c12 (stereo not drawn) [Compound P-0282, 1-(5-chloro-1H-indazol-7-yl)-2-(3-(methylsulfonyl)-3-azabicyclo[3.2.1]octan-8-yl)ethan-1-ol] | 0.0001 to 10 µM | 0.0001 to 10 µM | 0.0001 to 10 µM | 0.0001 to 10 µM
CS(=O)(=O)N1CCC(C(O)c2cc(Cl)cc3cn[nH]c23)CC1 (stereo not drawn) [Compound P-0283, (5-chloro-1H-indazol-7-yl)(1-(methylsulfonyl)piperidin-4-yl)methanol] | 0.0001 to 10 µM | 0.0001 to 10 µM | 0.0001 to 10 µM | > 10 µM
CC(C)(C1CCN(S(C)(=O)=O)CC1)C(O)c1c(F)ccc2cn[nH]c12 (stereo not drawn) [Compound P-0284, 1-(6-fluoro-1H-indazol-7-yl)-2-methyl-2-(1-(methylsulfonyl)piperidin-4-yl)propan-1-ol] | 0.0001 to 10 µM | 0.0001 to 10 µM | 0.0001 to 10 µM | 0.0001 to 10 µM
CC(C)(C(O)c1c(F)c(Cl)cc2cn[nH]c12)[C@H]1C[C@H]2CC[C@@H](C1)N2S(C)(=O)=O (stereo partly drawn) [Compound P-0285, 1-(5-chloro-6-fluoro-1H-indazol-7-yl)-2-methyl-2-((1R,3r,5S)-8-(methylsulfonyl)-8-azabicyclo[3.2.1]octan-3-yl)propan-1-ol] | 0.0001 to 10 µM | 0.0001 to 10 µM | 0.0001 to 10 µM | 0.0001 to 10 µM
CC1(C(O)c2cc(Cl)cc3cn[nH]c23)CCN(S(C)(=O)=O)CC1 (stereo not drawn) [Compound P-0286, (5-chloro-1H-indazol-7-yl)(4-methyl-1-(methylsulfonyl)piperidin-4-yl)methanol] | 0.0001 to 10 µM | 0.0001 to 10 µM | 0.0001 to 10 µM | 0.0001 to 10 µM
CC1(C(O)c2c(Cl)c(Cl)cc3cn[nH]c23)CCCCC1 (stereo not drawn) [Compound P-0287, (5,6-dichloro-1H-indazol-7-yl)(1-methylcyclohexyl)methanol] | 0.0001 to 10 µM | 0.0001 to 10 µM | > 10 µM | 0.0001 to 10 µM
CS(=O)(=O)N1CCC(C(F)(F)C(O)c2c(F)c(Cl)cc3cn[nH]c23)CC1 (stereo not drawn) [Compound P-0288, 1-(5-chloro-6-fluoro-1H-indazol-7-yl)-2,2-difluoro-2-(1-(methylsulfonyl)piperidin-4-yl)ethan-1-ol] | 0.0001 to 10 µM | 0.0001 to 10 µM | 0.0001 to 10 µM | 0.0001 to 10 µM
OC(c1cc(Cl)cc2cn[nH]c12)C(F)(F)C1(O)CCC1 (stereo not drawn) [Compound P-0289, 1-(2-(5-chloro-1H-indazol-7-yl)-1,1-difluoro-2-hydroxyethyl)cyclobutan-1-ol] | 0.0001 to 10 µM | 0.0001 to 10 µM | 0.0001 to 10 µM | 0.0001 to 10 µM
OC(c1c(F)c(Cl)cc2cn[nH]c12)C(F)(F)C1(O)CCC1 (stereo not drawn) [Compound P-0290, 1-(2-(5-chloro-6-fluoro-1H-indazol-7-yl)-1,1-difluoro-2-hydroxyethyl)cyclobutan-1-ol] | 0.0001 to 10 µM | 0.0001 to 10 µM | 0.0001 to 10 µM | 0.0001 to 10 µM
CC(C)S(=O)(=O)N1CC2CCC(C1)C2CC(O)c1cc(Cl)cc2cn[nH]c12 (stereo not drawn) [Compound P-0291, 1-(5-chloro-1H-indazol-7-yl)-2-(3-(isopropylsulfonyl)-3-azabicyclo[3.2.1]octan-8-yl)ethan-1-ol] | 0.0001 to 10 µM | 0.0001 to 10 µM | 0.0001 to 10 µM | 0.0001 to 10 µM
CC1(C)CN(c2c3c(cc4cn[nH]c24)CC3)CCN1S(C)(=O)=O [Compound P-0292, 7-(3,3-dimethyl-4-(methylsulfonyl)piperazin-1-yl)-5,6-dihydro-1H-cyclobuta[f]indazole] | 0.0001 to 10 µM | 0.0001 to 10 µM | 0.0001 to 10 µM | 0.0001 to 10 µM
OC(c1c2c(cc3cn[nH]c13)CC2)C1CC2CCC1C2 (stereo not drawn) [Compound P-0293, bicyclo[2.2.1]heptan-2-yl(5,6-dihydro-1H-cyclobuta[f]indazol-7-yl)methanol] | 0.0001 to 10 µM | 0.0001 to 10 µM | 0.0001 to 10 µM | 0.0001 to 10 µM
CC(=O)N1CCC(C(F)(F)C(O)c2cc(Cl)cc3cn[nH]c23)CC1 (stereo not drawn) [Compound P-0295, 1-(4-(2-(5-chloro-1H-indazol-7-yl)-1,1-difluoro-2-hydroxyethyl)piperidin-1-yl)ethan-1-one] | 0.0001 to 10 µM | 0.0001 to 10 µM | 0.0001 to 10 µM | 0.0001 to 10 µM
CS(=O)(=O)N1CCC(C(F)(F)C(O)c2c3c(cc4cn[nH]c24)CC3)CC1 (stereo not drawn) [Compound P-0296, 1-(5,6-dihydro-1H-cyclobuta[f]indazol-7-yl)-2,2-difluoro-2-(1-(methylsulfonyl)piperidin-4-yl)ethan-1-ol] | 0.0001 to 10 µM | 0.0001 to 10 µM | > 10 µM | 0.0001 to 10 µM
CC(C)(C1CCS(=O)(=O)CC1)C(O)c1cc(Cl)cc2cn[nH]c12 (stereo not drawn) [Compound P-0297, 4-(1-(5-chloro-1H-indazol-7-yl)-1-hydroxy-2-methylpropan-2-yl)tetrahydro-2H-thiopyran 1,1-dioxide] | 0.0001 to 10 µM | 0.0001 to 10 µM | 0.0001 to 10 µM | 0.0001 to 10 µM
CC(C)(C1CCS(=O)(=O)CC1)C(O)c1c(F)c(Cl)cc2cn[nH]c12 (stereo not drawn) [Compound P-0298, 4-(1-(5-chloro-6-fluoro-1H-indazol-7-yl)-1-hydroxy-2-methylpropan-2-yl)tetrahydro-2H-thiopyran 1,1-dioxide] | 0.0001 to 10 µM | 0.0001 to 10 µM | 0.0001 to 10 µM | 0.0001 to 10 µM
OC(c1c(F)c(Cl)cc2cn[nH]c12)C12CCC(F)(CC1)CC2 (stereo not drawn) [Compound P-0299, (5-chloro-6-fluoro-1H-indazol-7-yl)(4-fluorobicyclo[2.2.2]octan-1-yl)methanol] | 0.0001 to 10 µM | 0.0001 to 10 µM | 0.0001 to 10 µM | 0.0001 to 10 µM
CC(=O)N1C2CCC1CC(C(C)(C)C(O)c1c(F)c(Cl)cc3cn[nH]c13)C2 (stereo not drawn) [Compound P-0300] | 0.0001 to 10 µM | 0.0001 to 10 µM | 0.0001 to 10 µM | 0.0001 to 10 µM
OC(c1c(F)c(Cl)cc2cn[nH]c12)C12CCC(C(F)(F)F)(CC1)CC2 (stereo not drawn) [Compound P-0301, (5-chloro-6-fluoro-1H-indazol-7-yl)(4-(trifluoromethyl)bicyclo[2.2.2]octan-1-yl)methanol] | 0.0001 to 10 µM | 0.0001 to 10 µM | 0.0001 to 10 µM | 0.0001 to 10 µM
